From paper PMC11198769, “Enhancement of transcription efficiency by TAR-Tat system increases the functional expression of human olfactory receptors” (PLOS ONE, 2024) come the findings set out here.

The structures appear in SMILES notation. pEC50: −log10 of the molar value. Where two headings read alike, the source gives them in different places.

One test deals with T1, OR2M3 (Homo sapiens, UniProt Q8NG83).
T1 construct: Lucy tag (N); expressed in transfected cells; host or cells: Flp-In T-REx-293 cells stably expressing RTP1S, Gαolf and Ric8-b
T1 sequence (Q8NG83 1-312): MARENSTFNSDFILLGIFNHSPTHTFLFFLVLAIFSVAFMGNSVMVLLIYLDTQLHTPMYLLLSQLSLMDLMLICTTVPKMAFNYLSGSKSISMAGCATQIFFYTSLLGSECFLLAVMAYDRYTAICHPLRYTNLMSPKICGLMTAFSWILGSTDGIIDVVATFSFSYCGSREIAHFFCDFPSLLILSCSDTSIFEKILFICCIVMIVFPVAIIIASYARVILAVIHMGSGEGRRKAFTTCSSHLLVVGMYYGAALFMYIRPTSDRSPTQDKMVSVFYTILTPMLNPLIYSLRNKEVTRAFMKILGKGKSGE
The test can be described thus: hOR assay (GloSensor cAMP luciferase), dose-response. In kind it is cell-based. The following applies: OR2M3/pHEK plasmid. The method, then: (§1) Flp-In T-REx-293 cells stably expressing accessory proteins (RTP1S, Gαolf, and Ric8-b) were established using the Flp-In T-REx system. Accessory proteins-expressing cells were maintained in high-glucose Dulbecco’s modified Eagle medium (Sigma-Aldrich) containing 10% fetal bovine serum (Biowest) and 1% antibiotic–antimycotic (Nacalai tesque) at 37°C with 5% CO2.
(§2) The GloSensor™ Technology (Promega) was used for the luciferase assay of the hOR response. As the negative control, cells that were transfected by the pBApo-CMV neo vector and pHEK293 Ultra Expression Vector I were used as mock cells. hOR/pHEK and hOR/pBApo (50 ng/well) were transfected into the accessory proteins-expressing cell line (40000 cells/well) using Lipofectamine 2000 (Thermo Fisher Scientific) (400 nL/well) along with pGlosensor™-22F cAMP biosensor plasmid (Promega) (50 ng/well) in a 96-well plate. At 28 h posttransfection, the cells were washed with an assay buffer (140 mM NaCl, 10 mM HEPES, 5 mM KCl, 1 mM CaCl2・2H2O, 10 mM D-glucose, pH 7.5) and replaced with the assay buffer (50 μL/well) containing 2% GloSensor cAMP substrate and preincubated for 1 h at 25°C. Then, the assay buffer was added (130 μL/well). After 10 min of equilibration, the luminescence was measured (L0). Odorants diluted in 10% DMSO/assay buffer were treated (20 μL/well). After 9 min, the luminescence was measured (L9min). First, all the L9min values were subtracted by the L0 value (ΔL) and divided by the L0 value (ΔL/L0). The concentration range of the odorants was different for each odorant, but the minimum was 0.01 μM and the maximum was 3 mM. For all hORs, luciferase assays with hOR/pBApo and hOR/pHEK were conducted in the same 96-well plate each time, and luminescence was normalized to a maximum value of 100. Dose–response curve images were graphed using the Graph Pad Prism 9 software (Graph Pad Software).

Another test addresses T2, OR1A1 (Homo sapiens, UniProt Q9P1Q5).
T2 construct: Lucy tag (N); FLAG (N); Rho tag (N); expressed in transfected cells; host or cells: Flp-In T-REx-293 cells stably expressing RTP1S, Gαolf and Ric8-b
T2 sequence (Q9P1Q5 1-309): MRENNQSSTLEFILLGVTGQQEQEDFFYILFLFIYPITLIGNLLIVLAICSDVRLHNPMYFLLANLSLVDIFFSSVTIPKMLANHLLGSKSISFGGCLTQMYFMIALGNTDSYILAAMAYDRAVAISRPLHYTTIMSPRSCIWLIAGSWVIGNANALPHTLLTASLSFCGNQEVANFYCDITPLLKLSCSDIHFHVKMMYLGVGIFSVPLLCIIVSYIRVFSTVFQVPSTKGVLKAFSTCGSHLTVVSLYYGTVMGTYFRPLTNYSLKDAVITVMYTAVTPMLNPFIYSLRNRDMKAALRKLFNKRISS
The description is as above. The conditions noted are these: for pEC50: read-out: EC50 value; for top value of OR1A1 dose-response curve: luminescence normalized to a maximum value of 100. The format is cell-based. On the procedure:
as §1, §2

For `CCC(S)C(C)CO` (stereo not drawn) [3-mercapto-2-methyl-1-pentanol], the pEC50 at OR2M3 is 6.80.
As to `C=C(C)[C@H]1CC=C(C)C(=O)C1` [(+)-carvone], the “response of HiBiT-tagged OR1A1” value at OR1A1 (OR1A1 with the HiBiT tag (S1 Fig)) is recorded as “a dose-dependent response was detected”. Moreover, the pEC50 was 6.04 at OR1A1 (OR1A1 with the TAR-Tat system (OR1A1/pHEK)) and 5.36 at OR1A1 (OR1A1 without the TAR-Tat system (OR1A1/pBApo)). The “top value of OR1A1 dose-response curve” value at OR1A1 (with the TAR-Tat system (OR1A1/pHEK)) is 90.4; on OR1A1 (without the TAR-Tat system (OR1A1/pBApo)) it was 53.9.
